Source: patent US20230002387A1, “2-AMINO-S6-SUBSTITUTED THIOPURINE COMPOUNDS AS INHIBITORS OF THE ENPP1 PROTEIN” (ATEN PORUS LIFESCIENCES PVT. LTD., priority 2019, published 2023)
pKi: −log10 of the molar value.

Experiments:
[1] = test system: LLC1 syngeneic tumor; test: In vivo efficacy in LLC1 syngeneic tumor model (murine Lewis lung carcinoma); design: species or system C57BL/6 mice; settings: for % TGI (vs Control): Day 15; for Tumor volume (mm^3), Mean, Day 15: SE in next cell; for Reduction of tumor volume compared among the dosing groups of the compound: IV dosing in combination with anti-PD-1 antibody (FIG. 4, 7, 10); for Effect on tumor volume in the murine Lewis lung carcinoma model: PO and IV dosing, alone or in combination with anti-PD-1 antibody (FIG. 4, 7, 10); for Tumor volume (mm^3), Mean ± SE, Day 1: baseline at start of treatment
Protocol: The anti-tumor efficacy of Compound 155, 173 and 174 was evaluated in combination with an anti-PD-1 antibody (check point inhibitor) in LLC1, a syngeneic tumor model. Compounds were administered orally at a dose of 100 mg/kg, once daily. IV doses of the compound were administered at 10 mg/kg dose, twice weekly or Q3D (Compound 155 at 2 mg/Kg IV). Anti-PD-1 antibody was administered at a dose of 200 μg/animal via IP route on days 1, 5 and 9 (Table 5).
C57BL/6 mice (female, 7-8 weeks of age) were implanted subcutaneously with 0.2×10^6 LLC1 cells (ATCC® CRL-1642^Tm) to evaluate tumor growth in a murine Lewis lung carcinoma model. Tumor-bearing animals were randomized into different treatment groups of 8 animals based on tumor size criteria of about 50-60 mm^3 and dosed according to the schedule in Table 5.
Dosing protocol: The frequency for oral administration was once daily and IV administration was twice weekly for two weeks; anti-PD-1 antibody was administered via IP route on Days 1, 5 and 9.
Tumor measurement: Tumor growth was measured thrice weekly using a digital Vernier caliper. Tumor volume was calculated as: Tumor Volume (TV)=[Length (L)×Width (W)2]/2 (where length is the largest diameter and width is the smallest diameter of the tumor)
Efficacy Evaluation: Tumor growth inhibition (TGI) was calculated as: […]
Data Analysis: Statistical analysis of the data was performed by One-way ANOVA followed by Dunnett's test using GraphPad Prism (version 5.03).

[2] = biological target: T1, ENPP1 (Homo sapiens, UniProt P22413); test: Capillary electrophoresis-based NPP assay with ATP as a substrate (ENPP1 inhibition, Ki); format: biochemical; settings: Ki from IC50 by Cheng-Prusoff, 400 μM ATP
T1 sequence (P22413 1-925): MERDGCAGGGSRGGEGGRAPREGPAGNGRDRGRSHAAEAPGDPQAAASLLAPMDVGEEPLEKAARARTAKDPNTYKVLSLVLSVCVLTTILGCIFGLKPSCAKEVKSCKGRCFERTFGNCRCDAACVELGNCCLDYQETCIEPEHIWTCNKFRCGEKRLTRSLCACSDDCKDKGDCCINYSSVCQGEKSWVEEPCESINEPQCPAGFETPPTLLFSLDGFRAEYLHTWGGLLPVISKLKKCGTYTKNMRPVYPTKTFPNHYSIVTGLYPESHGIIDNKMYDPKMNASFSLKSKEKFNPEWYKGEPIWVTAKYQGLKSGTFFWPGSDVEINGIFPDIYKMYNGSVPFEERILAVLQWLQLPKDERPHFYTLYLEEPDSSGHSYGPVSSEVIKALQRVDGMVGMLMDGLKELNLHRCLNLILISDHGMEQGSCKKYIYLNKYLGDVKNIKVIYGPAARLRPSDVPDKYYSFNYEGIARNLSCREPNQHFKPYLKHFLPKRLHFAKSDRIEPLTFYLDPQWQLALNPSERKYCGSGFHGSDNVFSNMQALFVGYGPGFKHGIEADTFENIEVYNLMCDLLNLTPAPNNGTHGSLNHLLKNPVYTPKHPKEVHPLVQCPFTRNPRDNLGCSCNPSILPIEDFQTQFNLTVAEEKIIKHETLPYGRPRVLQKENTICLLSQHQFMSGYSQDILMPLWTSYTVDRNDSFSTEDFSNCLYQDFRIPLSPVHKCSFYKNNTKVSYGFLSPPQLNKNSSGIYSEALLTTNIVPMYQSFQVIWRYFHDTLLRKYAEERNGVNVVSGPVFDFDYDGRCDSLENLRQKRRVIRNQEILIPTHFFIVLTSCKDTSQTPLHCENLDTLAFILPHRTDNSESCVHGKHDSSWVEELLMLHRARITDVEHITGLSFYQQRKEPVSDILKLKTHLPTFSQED
Protocol: Here, a Capillary Electrophoresis based method was used to determine the IC50 values for ENPP1 Inhibitors for ENNP1 protein.
The inhibitors synthesized were assessed for ENPP1 inhibitory potency against the natural substrate ATP. The enzyme inhibition assays were performed in 10 mM 2-(N-cyclohexylamino)-ethanesulfonic acid (CHES) buffer (pH 10.0) including 1 mM MgCl2, 2 mM CaCl2), and 400 μM of ATP, with different inhibitor concentrations. The reaction mixture was incubated with 20 ng human NPP1 at 37° C. for 30 min in a final volume of 100 μL, and the reactions were stopped by heating at 90° C. for 3 min. Finally, the reaction mixtures were directly measured by capillary electrophoresis (CE). The CE instrumentation and operating conditions were as follows: P/ACE MDQ capillary electrophoresis system (Beckman Instruments, Fullerton, Calif., USA) with a DAD detection system, polyacrylamide-coated capillaries of 40 cm effective length×[…] (id) obtained from CS Chromatographie GmbH (Langerwehe, Germany), 50 mM phosphate buffer (pH 6.5) as running buffer, electrokinetic injection (−6 kV, 60 s), separation voltage of −15 kV. The amounts of AMP produced were measured at 260 nm. Data collection and peak area analysis were performed by 32 Karat software obtained from Beckman Coulter (Fullerton, Calif., USA).
The IC50 values of test compounds were calculated by plotting data in the program Prism 5.0, and the Ki values were calculated from the IC50 values with the Cheng-Prusoff equation (Tables 2-4).

[3] = IV 2 mg/kg twice weekly + anti-PD-1 200 μg/animal IP Q4D x 3
[4] = PO 100 mg/kg QD x 14 + anti-PD-1 200 μg/animal IP Q4D x 3
[5] = IV 10 mg/kg twice weekly + anti-PD-1 200 μg/animal IP Q4D x 3
[6] = IV 10 mg/kg twice weekly, alone

Structure (SMILES): Nc1nc(SCC(=O)Nc2ccc(O)c(C(=O)O)c2)c2[nH]cnc2n1 [Compound 155]
- % TGI (vs Control) [1, 3]: 57%
- Tumor volume (mm^3), Mean, Day 15 [1, 3]: 787 mm^3
- % TGI (vs Control) ([1]; IV 2 mg/kg twice weekly, alone): 47%
- Tumor volume (mm^3), Mean, Day 15 ([1]; IV 2 mg/kg twice weekly, alone): 956 mm^3
- Reduction of tumor volume compared among the dosing groups of the compound [1]: greatest reduction
- % TGI (vs Control) [1, 4]: 44%
- Tumor volume (mm^3), Mean, Day 15 [1, 4]: 1008 mm^3
- % TGI (vs Control) ([1]; PO 100 mg/kg QD x 14, alone): 33%
- Tumor volume (mm^3), Mean, Day 15 ([1]; PO 100 mg/kg QD x 14, alone): 1191 mm^3
- Effect on tumor volume in the murine Lewis lung carcinoma model [1]: reduced tumor volume
- Tumor volume (mm^3), Mean ± SE, Day 1 ([1]; IV 2 mg/kg + anti-PD-1 group): 50 ± 1.4 mm^3
- Tumor volume (mm^3), Mean ± SE, Day 1 ([1]; IV 2 mg/kg alone group): 51 ± 2.0 mm^3
- Tumor volume (mm^3), Mean ± SE, Day 1 ([1]; PO 100 mg/kg + anti-PD-1 group): 50 ± 1.4 mm^3
- Tumor volume (mm^3), Mean ± SE, Day 1 ([1]; PO 100 mg/kg alone group): 50 ± 1.4 mm^3
- pKi ([2]; bin of Table 2): ≥ 7.00

Structure (SMILES): COc1cc2ncc(SCC(=O)Nc3cc(S(N)(=O)=O)ccc3C)nc2cc1OC [Compound 36]
- pKi ([2]; bin of Table 4): ≤ 6.00

Structure (SMILES): CCOc1ccc(NC(=O)CSc2nc(N)nc3nc[nH]c23)cc1OCC [Compound 84]
- pKi ([2]; bin of Table 4): ≤ 6.00

Structure (SMILES): COc1ccnc(NC(=O)[C@@H](CCc2ccccc2)Sc2nc(N)nc3nc[nH]c23)n1 [Compound 507]
- pKi ([2]; bin of Table 2): ≥ 7.00

Structure (SMILES): COc1ccnc(NC(=O)[C@H](Sc2nc(N)nc3nc[nH]c23)C(C)C)n1 [Compound 511]
- pKi ([2]; bin of Table 2): ≥ 7.00

Structure (SMILES): COc1ccnc(NC(=O)C(C)(C)Sc2nc(N)nc3nc[nH]c23)n1 [Compound 504]
- pKi ([2]; bin of Table 2): ≥ 7.00

Structure (SMILES): COc1cc(NC(=O)C(C)Sc2nc(N)nc3nc[nH]c23)ccc1O (centres unmarked) [Compound 173]
- % TGI (vs Control) [1, 5]: 53%
- Tumor volume (mm^3), Mean, Day 15 [1, 5]: 856 mm^3
- % TGI (vs Control) [1, 6]: 48%
- Tumor volume (mm^3), Mean, Day 15 [1, 6]: 926 mm^3
- Reduction of tumor volume compared among the dosing groups of the compound [1]: greatest reduction
- % TGI (vs Control) [1, 4]: 47%
- Tumor volume (mm^3), Mean, Day 15 [1, 4]: 945 mm^3
- % TGI (vs Control) ([1]; PO 100 mg/kg QD x 14, alone): 37%
- Tumor volume (mm^3), Mean, Day 15 ([1]; PO 100 mg/kg QD x 14, alone): 1126 mm^3
- Effect on tumor volume in the murine Lewis lung carcinoma model [1]: reduced tumor volume
- Tumor volume (mm^3), Mean ± SE, Day 1 ([1]; IV 10 mg/kg + anti-PD-1 group): 50 ± 1.4 mm^3
- Tumor volume (mm^3), Mean ± SE, Day 1 ([1]; IV 10 mg/kg alone group): 50 ± 1.3 mm^3
- Tumor volume (mm^3), Mean ± SE, Day 1 ([1]; PO 100 mg/kg + anti-PD-1 group): 50 ± 1.4 mm^3
- Tumor volume (mm^3), Mean ± SE, Day 1 ([1]; PO 100 mg/kg alone group): 50 ± 1.4 mm^3
- pKi ([2]; bin of Table 2): ≥ 7.00

Structure (SMILES): Nc1nc(SCC(=O)Nc2ccc3ncsc3c2)c2[nH]cnc2n1 [Compound 181]
- pKi ([2]; bin of Table 2): ≥ 7.00

Structure (SMILES): CC(=O)c1cc(NC(=O)CSc2nc(N)nc3nc[nH]c23)ccc1O [Compound 199]
- pKi ([2]; bin of Table 2): ≥ 7.00

Structure (SMILES): CC[C@@H](Sc1nc(N)nc2nc[nH]c12)C(=O)Nc1nccc(OC)n1 [Compound 389]
- pKi ([2]; bin of Table 2): ≥ 7.00

Structure (SMILES): CCC(Sc1nc(N)nc2nc[nH]c12)C(=O)Nc1ccc(O)c(OC)c1 (centres unmarked) [Compound 174]
- % TGI (vs Control) [1, 5]: 57%
- Tumor volume (mm^3), Mean, Day 15 [1, 5]: 778 mm^3
- % TGI (vs Control) [1, 6]: 48%
- Tumor volume (mm^3), Mean, Day 15 [1, 6]: 930 mm^3
- Reduction of tumor volume compared among the dosing groups of the compound [1]: greatest reduction
- % TGI (vs Control) [1, 4]: 60%
- Tumor volume (mm^3), Mean, Day 15 [1, 4]: 724 mm^3
- % TGI (vs Control) ([1]; PO 100 mg/kg QD x 14, alone): 52%
- Tumor volume (mm^3), Mean ± SE, Day 1 ([1]; IV 10 mg/kg + anti-PD-1 group): 50 ± 1.2 mm^3
- Tumor volume (mm^3), Mean ± SE, Day 1 ([1]; IV 10 mg/kg alone group): 50 ± 1.1 mm^3
- Tumor volume (mm^3), Mean ± SE, Day 1 ([1]; PO 100 mg/kg + anti-PD-1 group): 50 ± 1.2 mm^3
- Tumor volume (mm^3), Mean ± SE, Day 1 ([1]; PO 100 mg/kg alone group): 50 ± 1.3 mm^3

Structure (SMILES): CC[C@@H](Sc1nc(N)nc2nc[nH]c12)C(=O)Nc1cc(OC)ccn1 [Compound 471]
- pKi ([2]; bin of Table 2): ≥ 7.00

Structure (SMILES): COc1nc(NC(=O)C(C)(C)Sc2nc(N)nc3nc[nH]c23)ncc1F [Compound 529]
- pKi ([2]; bin of Table 2): ≥ 7.00

Structure (SMILES): Cc1nc2cc(NC(=O)CSc3nc(N)nc4nc[nH]c34)ccc2s1 [Compound 182]
- pKi ([2]; bin of Table 2): ≥ 7.00
